Measurements reported in publication PMC5515057, “Protein sensing in living cells by molecular rotor-based fluorescence-switchable chemical probes” (Chemical Science, 2015).

What was measured:
[1] = molecular target: T1, O6-methylguanine-methyltransferase (MGMT) (Homo sapiens, UniProt P16455); assay: fluorescence turn-on kinetics with recombinant MGMT, SDS-PAGE in-gel fluorescence, Job's plot; also HeLa S3 lysate labeling; type: binding; conditions: read-out: fluorescence turn-on kinetics with recombinant MGMT, SDS-PAGE in-gel fluorescenc
T1 construct: recombinant MGMT, about 26 kDa
T1 sequence (P16455 1-207): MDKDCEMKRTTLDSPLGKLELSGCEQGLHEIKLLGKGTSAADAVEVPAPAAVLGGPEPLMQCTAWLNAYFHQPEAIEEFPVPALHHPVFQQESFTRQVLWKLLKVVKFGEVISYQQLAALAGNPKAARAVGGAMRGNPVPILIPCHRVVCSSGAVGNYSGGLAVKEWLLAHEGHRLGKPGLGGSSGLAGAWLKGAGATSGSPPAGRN

[2] = molecular target: T2, human carbonic anhydrase II (hCAII) (Homo sapiens, UniProt P00918); assay: fluorescence turn-on titration with hCAII in PBS; displaced by ethoxzolamide; type: binding
T2 construct: gene CA2

Work on `N#C/C(=C\c1cc2c3c(c1)CCCN3CCC2)C(=O)NCc1ccc(COc2nc(N)nc3[nH]cnc23)cc1` [BG-CCVJ] yielded a kinact/KI [1] of ~715 M⁻¹ s⁻¹.

Compound `N#CC(=Cc1cc2c3c(c1)CCCN3CCC2)C(=O)NCc1ccc(S(N)(=O)=O)cc1` [SA-CCVJ] has a Kd [2] of ~70 nM.
